Experimental data reported in PubChem BioAssay AID248 (DTP/NCI, 2004).
“And” between values parts separate entries of the source, which are not always exact repeats. Equal entries are not always repeated. Toxic doses and inconclusive results are not listed. No stated cut-off is given here; in the data, active means T/C of 150% or more; inactive means T/C below 125%.

Tested on: L1210 leukemia ip in BDF1 mice, survival T/C
Assay: NCI In Vivo Anticancer Drug Screen. Data for tumor model L1210 Leukemia (intraperitoneal) in B6D2F1 (BDF1) mice
Conditions: endpoint: mean survival time, higher = longer survival
In short: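 Mice bearing the transplanted tumor received compound or vehicle. Survival of the treated group was divided by that of the vehicle-treated control group to give the ratio.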

[1] = dose: 100.0 mg/kg/injection, schedule: Q01DX009 (ip), vehicle: Klucel (hydroxypropylcellulose) (HPC)
[2] = dose: 100.0 mg/kg/injection, schedule: Q04DX003 (ip), vehicle: Klucel (hydroxypropylcellulose) (HPC)
[3] = dose: 200.0 mg/kg/injection, schedule: Q01DX009 (ip), vehicle: Klucel (hydroxypropylcellulose) (HPC)
[4] = dose: 200.0 mg/kg/injection, schedule: Q04DX003 (ip), vehicle: Klucel (hydroxypropylcellulose) (HPC)
[5] = dose: 400.0 mg/kg/injection, schedule: Q04DX003 (ip), vehicle: Klucel (hydroxypropylcellulose) (HPC)
[6] = dose: 100.0 mg/kg/injection, schedule: Q01DX001 (ip), vehicle: saline with Tween-80
[7] = dose: 200.0 mg/kg/injection, schedule: Q01DX001 (ip), vehicle: saline with Tween-80
[8] = dose: 400.0 mg/kg/injection, schedule: Q01DX001 (ip), vehicle: saline with Tween-80
[9] = dose: 100.0 mg/kg/injection, schedule: Q01DX009 (ip), vehicle: saline with Tween-80
[10] = dose: 200.0 mg/kg/injection, schedule: Q01DX009 (ip), vehicle: saline with Tween-80
[11] = dose: 100.0 mg/kg/injection, schedule: Q04DX002 (ip), vehicle: saline with Tween-80
[12] = dose: 100.0 mg/kg/injection, schedule: Q04DX003 (ip), vehicle: saline with Tween-80
[13] = dose: 200.0 mg/kg/injection, schedule: Q04DX002 (ip), vehicle: saline with Tween-80
[14] = dose: 200.0 mg/kg/injection, schedule: Q04DX003 (ip), vehicle: saline with Tween-80
[15] = dose: 400.0 mg/kg/injection, schedule: Q01DX009 (ip), vehicle: saline with Tween-80
[16] = dose: 400.0 mg/kg/injection, schedule: Q04DX002 (ip), vehicle: saline with Tween-80
[17] = dose: 400.0 mg/kg/injection, schedule: Q04DX003 (ip), vehicle: saline with Tween-80
[18] = dose: 100.0 mg/kg/injection, schedule: Q04DX002 (ip), vehicle: Klucel (hydroxypropylcellulose) (HPC)
[19] = dose: 200.0 mg/kg/injection, schedule: Q04DX002 (ip), vehicle: Klucel (hydroxypropylcellulose) (HPC)
[20] = dose: 100.0 mg/kg/injection, schedule: Q01DX001 (ip), vehicle: saline
[21] = dose: 200.0 mg/kg/injection, schedule: Q01DX001 (ip), vehicle: saline
[22] = dose: 400.0 mg/kg/injection, schedule: Q01DX001 (ip), vehicle: saline
[23] = dose: 100.0 mg/kg/injection, schedule: Q01DX001 (ip), vehicle: Klucel (hydroxypropylcellulose) (HPC)

Measured: T/C

Cc1nnc(NC(=O)CCl)s1
inactive: dose: 100.0 mg/kg/injection, schedule: Q01DX001 (ip), vehicle: other 107 % of control | [1] 98 % of control | dose: 100.0 mg/kg/injection, schedule: Q04DX003 (ip), vehicle: other 98 % of control | dose: 200.0 mg/kg/injection, schedule: Q01DX001 (ip), vehicle: other 100 % of control | dose: 200.0 mg/kg/injection, schedule: Q04DX003 (ip), vehicle: other 106 % of control | dose: 400.0 mg/kg/injection, schedule: Q01DX001 (ip), vehicle: other 98 % of control | dose: 400.0 mg/kg/injection, schedule: Q04DX003 (ip), vehicle: other 101 % of control

O=C(NNC(=O)OCc1ccccc1)OCc1ccccc1
inactive: [1] 104 % of control | [2] 97 % of control | [3] 113 % of control | [4] 97 % of control | [5] 97 % of control

CCOC(=O)CCC(NC(=O)c1ccc2c(c1)CCCN2C=O)C(=O)OCC (stereo not given)
inactive: [2] 104 % of control | [4] 103 % of control | [5] 103 % of control

COc1nsc(N)n1
inactive: [6] 100 % of control | [7] 104 % of control | [8] 91 % of control

CC(=O)NC1CCCC(C)C1 (stereo not given)
inactive: [9] 101 % of control | [10] 106 % of control

O=C(Nc1ccc(Cl)cc1[N+](=O)[O-])Oc1ccc(-c2ccccc2)cc1
inactive: [6] 97 % of control | [9] 94 % of control and 103 % of control | [11] 97 % of control and 91 % of control | [12] 108 % of control | [7] 100 % of control | [10] 92 % of control | [13] 102 % of control and 90 % of control | [14] 107 % of control | [8] 89 % of control | [15] 106 % of control and 92 % of control | [16] 103 % of control and 91 % of control | [17] 95 % of control

CC(=O)Cc1cc(C)nc(/N=C(\N)Nc2ccccc2)n1
inactive: [18] 93 % of control | [19] 104 % of control

CCCCCCCC/C=C\CCCCCCCCOCC(O)CO (stereo not given)
inactive: dose: 50.0 mg/kg/injection, schedule: Q01DX009 (ip), vehicle: acetone 87 % of control | [20] 87 % of control | dose: 100.0 mg/kg/injection, schedule: Q01DX009 (ip), vehicle: acetone 93 % of control | dose: 100.0 mg/kg/injection, schedule: Q04DX003 (ip), vehicle: acetone 100 % of control | [21] 91 % of control | dose: 200.0 mg/kg/injection, schedule: Q04DX003 (ip), vehicle: acetone 103 % of control | [22] 86 % of control

CCCCNC(=O)Nc1ccccc1Cl
inactive: [23] 96 % of control | dose: 200.0 mg/kg/injection, schedule: Q01DX001 (ip), vehicle: Klucel (hydroxypropylcellulose) (HPC) 99 % of control | dose: 400.0 mg/kg/injection, schedule: Q01DX001 (ip), vehicle: Klucel (hydroxypropylcellulose) (HPC) 102 % of control

COc1ccc(C2=NC(=O)C(C(=O)c3ccccc3)O2)cc1 (stereo not given)
inactive: [20] 94 % of control | [21] 96 % of control | [22] 96 % of control

CCOC(=O)NCc1ccco1
inactive: dose: 5.0 mg/kg/injection, schedule: Q01DX009 (ip), vehicle: saline 89 % of control | dose: 10.0 mg/kg/injection, schedule: Q01DX009 (ip), vehicle: saline 109 % of control | dose: 20.0 mg/kg/injection, schedule: Q01DX009 (ip), vehicle: saline 93 % of control

O=C(Nc1ccccc1)Nc1ccccn1
inactive: dose: 12.5 mg/kg/injection, schedule: Q04DX003 (ip), vehicle: saline with Tween-80 95 % of control | dose: 25.0 mg/kg/injection, schedule: Q04DX003 (ip), vehicle: saline with Tween-80 95 % of control

Nc1ccc([I+]c2ccccc2)cc1
inactive: dose: 50.0 mg/kg/injection, schedule: Q01DX001 (ip), vehicle: saline 101 % of control | [20] 103 % of control

NS(=O)(=O)c1ccc(NC2OCC(O)C(O)C2O)cc1 (stereo not given)
inactive: [12] 98 % of control | [14] 100 % of control | [17] 102 % of control

O=C1OC(/C=C/c2ccccc2)=NC/1=C\c1ccccc1O
inactive: [11] 92 % of control | [13] 92 % of control | [16] 89 % of control

Cc1cccc(NC#N)n1
inactive: dose: 25.0 mg/kg/injection, schedule: Q01DX001 (ip), vehicle: Klucel (hydroxypropylcellulose) (HPC) 100 % of control | dose: 50.0 mg/kg/injection, schedule: Q01DX001 (ip), vehicle: Klucel (hydroxypropylcellulose) (HPC) 98 % of control | [23] 98 % of control and 101 % of control

COc1ccc(OCCOC(=O)Nc2cccc(C(F)(F)F)c2)cc1
inactive: [9] 109 % of control | [10] 96 % of control | [15] 91 % of control

Cc1cc(C)c([S-])c(C)c1.[Cu+]
inactive: dose: 18.8 mg/kg/injection, schedule: Q01DX001 (ip), vehicle: saline 98 % of control

CC(C(O)c1ccc(Cl)cc1)C(O)(C(F)(F)F)C(F)(F)F (stereo not given)
inactive: dose: 75.0 mg/kg/injection, schedule: Q01DX009 (ip), vehicle: saline with Tween-80 100 % of control | dose: 150.0 mg/kg/injection, schedule: Q01DX009 (ip), vehicle: saline with Tween-80 110 % of control | dose: 300.0 mg/kg/injection, schedule: Q01DX009 (ip), vehicle: saline with Tween-80 101 % of control

CC1OC1C1OC1C (stereo not given)
inactive: dose: 100.0 mg/kg/injection, schedule: Q04DX002 (ip), vehicle: saline 109 % of control | dose: 100.0 mg/kg/injection, schedule: Q04DX003 (ip), vehicle: saline 104 % of control and 101 % of control and 97 % of control | dose: 200.0 mg/kg/injection, schedule: Q04DX002 (ip), vehicle: saline 109 % of control | dose: 200.0 mg/kg/injection, schedule: Q04DX003 (ip), vehicle: saline 108 % of control and 111 % of control and 95 % of control | dose: 400.0 mg/kg/injection, schedule: Q04DX002 (ip), vehicle: saline 109 % of control | dose: 400.0 mg/kg/injection, schedule: Q04DX003 (ip), vehicle: saline 111 % of control and 97 % of control and 98 % of control

NS(=O)(=O)c1ccc(S(=O)(=O)NC2CCCCC2)cc1
inactive: [1] 101 % of control | [3] 101 % of control

CC(C)OC(CCC#N)c1ccccc1 (stereo not given)
inactive: [1] 101 % of control | [2] 102 % of control | [3] 98 % of control | [4] 96 % of control | [5] 102 % of control

O=C(O)CCn1c(=O)n(CCC(=O)O)c(=O)n(CCC(=O)O)c1=O
inactive: [18] 100 % of control | [19] 93 % of control | dose: 400.0 mg/kg/injection, schedule: Q04DX002 (ip), vehicle: Klucel (hydroxypropylcellulose) (HPC) 86 % of control

O=C(Cl)c1ccccc1S(=O)(=O)N(CCOc1ccccc1)c1ccccc1
inactive: [1] 97 % of control | [2] 96 % of control | [3] 98 % of control | [4] 91 % of control | dose: 400.0 mg/kg/injection, schedule: Q01DX009 (ip), vehicle: Klucel (hydroxypropylcellulose) (HPC) 97 % of control | [5] 86 % of control

CC(=O)OC1COC(SC(=N)N)C(OC(C)=O)C1OC(C)=O (stereo not given)
inactive: dose: 75.0 mg/kg/injection, schedule: Q01DX001 (ip), vehicle: water 101 % of control and 104 % of control | dose: 150.0 mg/kg/injection, schedule: Q01DX001 (ip), vehicle: water 104 % of control and 103 % of control | dose: 300.0 mg/kg/injection, schedule: Q01DX001 (ip), vehicle: water 97 % of control and 95 % of control

CC(=O)NC1CCC(O)CC1 (stereo not given)
inactive: [20] 104 % of control | [21] 94 % of control | [22] 107 % of control

CC12NC(=O)NC1(C)NC(=O)N2 (stereo not given)
inactive: dose: 25.0 mg/kg/injection, schedule: Q01DX009 (ip), vehicle: saline 89 % of control | dose: 50.0 mg/kg/injection, schedule: Q01DX009 (ip), vehicle: saline 95 % of control | dose: 100.0 mg/kg/injection, schedule: Q01DX009 (ip), vehicle: saline 96 % of control and 89 % of control | [12] 96 % of control | dose: 200.0 mg/kg/injection, schedule: Q01DX009 (ip), vehicle: saline 100 % of control | [14] 102 % of control | [17] 96 % of control
